According to patent US20080227131A1, “Signalling Assay and Cell Line” (GE HEALTHCARE UK LIMITED, priority 2005, published 2008):
pEC50: −log10 of the molar value.

Key:
[1] = system: EGFP-MAPK14 fusion protein; assay: EGFP-MAPK14 fusion protein translocation assay for activation of MAPK14 (N:C ratio) in stable SW1353 cells; type: cell-based, human
Description: During assay preparation and throughout the assay, background stress response was kept to a minimum; microplates, cells and solutions were maintained at 37° C., 5% CO2, and 95% relative humidity. All inhibitors and activators were added to cells in complete medium.
50 μl of the prepared test activator in complete medium and control compounds were added and incubated at 37° C., 5% CO2, and 95% relative humidity. For fixed cell assays, 150 μl 10% (v/v) formalin (4% formaldehyde) was added at room temperature for 20 min. Cells were washed twice with PBS and nuclei were stained with Hoechst (10 μM) in PBS prior to imaging.

[2] = system: phospho-(Thr180/Tyr182)-p38(MAPK14); assay: Anti-phospho-p38 immunofluorescence assay in SW1353 cells; type: cell-based, human; conditions: 30 min treatment, fixed; n=8; read-out: EC50, immunofluorescence assay (Alexa647-anti-phospho-p38 signal)
Description: The temporal and biological response of the EGFP-MAPK14 assay was validated through co-analysis with a recognised assay for p38 (MAPK14) activation—an immunofluorescence assay targeting phospho-(Thr180/Tyr182)-p38(MAPK14). […] Cells were then washed (1% goat serum, 0.1% Tween in PBS), permeabilized (0.5% Triton X in wash buffer) for 15 minutes at room temperature and washed again. 50 μl of rabbit anti-phospho-p38 antibody at 1:200 (Zymed Laboratories, San Francisco, USA) was added and incubated for 1 hr at room temperature prior to two washes and the addition of 50 μl of goat-anti rabbit Alexa647 antibody (Molecular Probes) at 1:200 and incubation for 1 hr at room temperature. After 2 washes, cells were imaged in PBS to detect Hoechst, EGFP-MAPK14 and Alexa647 on an IN Cell Analyzer 1000 instrument.

For `COc1ccc(C[C@H]2NC[C@H](O)[C@H]2OC(C)=O)cc1` [anisomycin], the “Nuclear accumulation of EGFP-MAPK14 fusion protein” value ([1]; live cells, 300 nM for 15 mins) was “clearly demonstrate significant nuclear accumulation”.
`OC[C@@H](O)[C@@H](O)[C@H](O)[C@@H](O)CO` [sorbitol] was tested, and the “Duration of stimulation after initial exposure” value ([1]; live cells, 0.4 M) was “at least 90 minutes” and the “Nuclear accumulation of EGFP-MAPK14 fusion protein” value ([1]; live cells, 0.4 M for 15 mins) was “clearly demonstrate nuclear accumulation”.
With IL-1β the EC80 ([1]; concentration used as activator in the inhibitor assay) was 12 pM, the “Translocation of EGFP-MAPK14 signal from cytoplasm to nucleus” value ([1]; fixed cell assay, 316 pM for 30 minutes (FIG. 19)) was “clear translocation” and the “Translocation of EGFP-MAPK14 signal from cytoplasm to nucleus” value ([1]; living cells, 12 pM) was “clear translocation”. It also gave a pEC50 [2] of 11.11.
